In patent US20020111305A1, “Antiviral peptides” (priority 1998, published 2002):
Where no end group is shown, it is not given here.

Assays:
[1] = test system: HIV-1 III-b; test: HIV-1 neutralization assay (syncytia-forming on MT-2 cells); format: cell-based, Human Immuno-deficiency Virus Type 1; details: day 21; 457 TCID50 HIV per ml; 2 hours at 37° C.; maximum 800 μg/ml
Procedure: (§1) A neutralization assay was performed on HIV-1 III-b as substantially described by Groenink M. et al., J. Virol 69, 523-527 (1995). In short, this assay comes down to the virus-neutralizing capacity of the different peptides being tested with an inoculum of 457 TCID50HIV per ml per neutralization, which is incubated at 37° C. for two hours with a twofold dilution series of the peptide for testing (maximum 800 μg/ml final concentration). The incubations are performed in a 5 mM phosphate buffer. On day 7, 14 and 21 the neutralization is assessed on the basis of the detected cytopathic effect (syncytia-forming) on MT-2 cells.

[2] = test system: MT-2 cells; test: Cytotoxicity seen in the HIV-1 neutralization assay; format: cell-based; details: 800 μg/ml
Procedure: as §1

[3] = test system: Herpes Simplex Virus (HSV); test: Antiviral activity against Herpes Simplex Virus (TCID50 on Vero-cells after pre-incubation with peptide); format: cell-based
Procedure: In test phials 10 μl HSV (Department of Virology Academisch Ziekenhuis Leiden (Leiden University Hospital), lab strain 96-6700 P (TCID50 10^5-10^6), was supplemented with peptide and NaPB to 200 μl. For the positive control the peptide was replaced by a human neutrophil defensin pool (HNP1-3). The test phials were subsequently incubated at 37° C. for 3 hours. Tenfold dilutions were then made in Dulbecco's Modified Eagles Medium (DMEM) with 2% foetal calf serum (FSCi). Diverse peptides, synthesized in identical manner, were used as negative control in the experiments.
Vero-cells were isolated using detachment buffer (0.25% trypsin and 0.03% EDTA in PBS), washed and brought to a concentration of 2×10^5 cells per ml DMEM +2% FCSi. In 96 wells-plates (Nunclon) 100 μl cell suspension (2×10^4 cells) was added per well. Acyclovir (ACV) was added as control to several wells about two hours (t=−2 hours) before infection. 50 μl of a dilution was added to each well at the point in time t=0.
After 3 days incubation in a CO2-stove of 37° C. the cytopathological effect (cpe) was scored by counting under the microscope and the TCID50 (tissue culture […] dose) was determined using the Reed & Muench method (Dulbecco & Ginsberg, “Virology”, JB Lippincott Co., Philadelphia, 2nd edition, 1988).
The effectiveness of peptide 10 in time was then determined. […]

Sequence | neutralizing capacity: μg/ml necessary for neutralization [1] | cytotoxicity at the highest concentration [2] | activity against HSV compared with HNP, dilution series (FIG. 3) ([3]; in high concentrations) | effectiveness against HSV compared with acyclovir and HNP (FIG. 1) ([3]; peptide at sufficiently high concentrations (50 μg/ml), 3 hours at 37° C.)
KRKFHEKHHSHRGY [dh-5, the C-terminal part of histatin 5, reference compound] | no neutralisation |  |  | 
DSHAKRHHGYKRKFHEKHHSHRGY [his 5, reference compound] | no neutralization |  |  | 
LLLFLLKKRKKRKY [peptide 11, LLLFLLKKRKKRKY] |  | # peptide 11 was cytoxic at the highest concentration (800 μg/ml). |  | 
KRLFKKLLFSLRKY [peptide 10] | 200 µg/mL |  | more effective than HNP | at least as effective as acyclovir and HNP
KRLFKELLFSLRKY [peptide 4] | 200 µg/mL |  |  | 
